Test results taken from ChEMBL document CHEMBL1136964, “Nicotinic agonist binding site mapped by methionine- and tyrosine-scanning coupled with azidochloropyridinyl photoaffinity labeling” (J Med Chem, 2009).

Legend:
Assay type in all cases: cell-based
HEK293S [1] = assay: Binding affinity to Aplysia californica AchBP S114M, M116L mutant expressed in HEK293S cells assessed as specific photoincorporation at 46 pmol by scintillation counting relative to wild type
HEK293S [2] = assay: Binding affinity to Aplysia californica AchBP M116Y mutant expressed in HEK293S cells assessed as specific photoincorporation at 46 pmol by scintillation counting relative to wild type
[3] = Binding affinity to Aplysia californica AchBP A107M mutant expressed in HEK293S cells by scintillation proximity assay
[4] = Binding affinity to Aplysia californica AchBP A107M, M116L mutant expressed in HEK293S cells by scintillation proximity assay
[5] = Binding affinity to Aplysia californica AchBP S114M mutant expressed in HEK293S cells by scintillation proximity assay
[6] = Binding affinity to Aplysia californica AchBP S114M, M116L, Y195F mutant expressed in HEK293S cells by scintillation proximity assay
HEK293S [7] = assay: Binding affinity to Aplysia californica AchBP I106M, M116L, Y195F mutant expressed in HEK293S cells assessed as specific photoincorporation at 46 pmol by scintillation counting
HEK293S [8] = assay: Binding affinity to Aplysia californica AchBP A107M, M116L mutant expressed in HEK293S cells assessed as specific photoincorporation at 46 pmol by scintillation counting
HEK293S [9] = assay: Binding affinity to Aplysia californica AchBP A107M, M116L, Y195F mutant expressed in HEK293S cells assessed as specific photoincorporation at 46 pmol by scintillation counting
HEK293S [10] = assay: Binding affinity to Aplysia californica AchBP V108M mutant expressed in HEK293S cells assessed as specific photoincorporation at 46 pmol by scintillation counting
HEK293S [11] = assay: Binding affinity to Aplysia californica AchBP V108M, M116L, Y195F mutant expressed in HEK293S cells assessed as specific photoincorporation at 46 pmol by scintillation counting
HEK293S [12] = assay: Binding affinity to Aplysia californica AchBP S114M, M116L mutant expressed in HEK293S cells assessed as specific photoincorporation at 46 pmol by scintillation counting
HEK293S [13] = assay: Binding affinity to Aplysia californica AchBP I118M, M116L mutant expressed in HEK293S cells assessed as specific photoincorporation at 46 pmol by scintillation counting
HEK293S [14] = assay: Binding affinity to Aplysia californica AchBP M116Y mutant expressed in HEK293S cells assessed as specific photoincorporation at 46 pmol by scintillation counting
HEK293S [15] = assay: Binding affinity to Aplysia californica AchBP M116Y, Y195F mutant expressed in HEK293S cells assessed as specific photoincorporation at 46 pmol by scintillation counting
HEK293S [16] = assay: Binding affinity to Aplysia californica AchBP A107M mutant expressed in HEK293S cells assessed as specific photoincorporation at 46 pmol by scintillation counting relative to wild type
HEK293S [17] = assay: Binding affinity to Aplysia californica AchBP A107M, M116L mutant expressed in HEK293S cells assessed as specific photoincorporation at 46 pmol by scintillation counting relative to wild type

## Clc1ccc(C2CC3CCC2N3)cn1 (racemic) [EPIBATIDINE]
HEK293S [1]
  Activity: 66%
HEK293S [2]
  Activity: 59%
[3]
  Kd: 0.01 µM
[4]
  Kd: 0.0075 µM
[5]
  Kd: 0.016 µM
[6]
  Kd: 0.024 µM
HEK293S [7]
  Activity: 3.7%
HEK293S [8]
  Activity: 29%
HEK293S [9]
  Activity: 3.7%
HEK293S [10]
  Activity: 9.5%
HEK293S [11]
  Activity: 0%
HEK293S [12]
  Activity: 19%
HEK293S [13]
  Activity: 16%
HEK293S [14]
  Activity: 17%
HEK293S [15]
  Activity: 8.7%
HEK293S [16]
  Activity: 93%
HEK293S [17]
  Activity: 100%
